Where a SMILES comes first, the peptide text is derived from it. [ ]: non-standard residue; d: D form. Phe(4-I) = N[C@@H](Cc1ccc(I)cc1)C(=O)O
What was measured:
HIF-2α PAS-B domain = biological target: T1, HIF-2α PAS-B domain (Homo sapiens, UniProt Q99814); assay: MST binding to the PAS-B domain of HIF-2α; conditions: MST KD ratio
T1 construct: made in house
Experimental: All reagents were purchased from Fisher Scientific or Sigma Aldrich UK unless specified otherwise.
Restriction enzymes and microbiology reagents were purchased from New England Biolabs Inc., Fisher Scientific (UK) or Promega (UK) and were used as directed by the manufacturer. Primers and oligonucleotides were synthesised by Integrated DNA Technologies (UK). DNA sequencing was carried out by Eurofins MWG Operon (Germany).
Construction of the RTHS and SICLOPPS library, screening, purification of recombinant HIF proteins, and the PLA was conducted as previously described in Miranda et al., J. Am. Chem. Soc., 2013, 135(28); […]
Protein labelling with MST dye
Protein was buffer exchanged from storage buffer into labelling buffer (0.1 M NaHCO3, pH 8.5) using a PD spintrap G-25 column (GE healthcare). The protein concentration was then adjusted to 20 µM.
The commercially sourced MST dye (NanoTemper) was prepared as a 470 µM solution in DMSO, which was then further diluted to 60 µM using labelling buffer. To the protein solution was added an equal volume of dye solution, and the labelling reaction was left for 1 hour in the dark at room temperature.
The labelled protein was separated from unreacted dye by elution through a PD minitrap G-25 column (GE healthcare). Labelled protein was then aliquoted and stored at -80 °C. Extent of labelling was measured by the absorbance obtained using the UV-vis mode on a NanoDrop ND-1000 Spectrophotometer (NanoDrop Technologies, USA).
Labelled protein was thawed on ice and diluted to 50 nM in assay buffer containing 50 mM Tris pH 8.0, 150 mM NaCl, 5% (v/v) glycerol, 1 mM TCEP and 0.05% TWEEN-20. The protein solution was then centrifuged at 12000 rpm for 15 minutes at 4 °C and left on ice. Compounds were prepared and serially diluted in DMSO at 10x assay concentration, before diluting to 2x assay concentration in assay buffer.
The 2x compound solutions were then mixed 1:1 (v/v) with 50 nM labelled protein solution and left to incubate for 1 hour at room temperature. Solutions were then loaded into Monolith NT.115 Premium Capillaries (NanoTemper) and placed in the sample tray. MST experiments were carried out

HIF-1α in Panc-1 cells = biological target: T2, HIF-1α in Panc-1 cells (Homo sapiens, UniProt Q16665); assay: Cellular thermal shift assay; assay type: cell-based; conditions: 40 μM, samples heated to 54 °C
T2 construct: endogenous in cells; host or cells: PANC-1
T2 sequence (Q16665 whole entry): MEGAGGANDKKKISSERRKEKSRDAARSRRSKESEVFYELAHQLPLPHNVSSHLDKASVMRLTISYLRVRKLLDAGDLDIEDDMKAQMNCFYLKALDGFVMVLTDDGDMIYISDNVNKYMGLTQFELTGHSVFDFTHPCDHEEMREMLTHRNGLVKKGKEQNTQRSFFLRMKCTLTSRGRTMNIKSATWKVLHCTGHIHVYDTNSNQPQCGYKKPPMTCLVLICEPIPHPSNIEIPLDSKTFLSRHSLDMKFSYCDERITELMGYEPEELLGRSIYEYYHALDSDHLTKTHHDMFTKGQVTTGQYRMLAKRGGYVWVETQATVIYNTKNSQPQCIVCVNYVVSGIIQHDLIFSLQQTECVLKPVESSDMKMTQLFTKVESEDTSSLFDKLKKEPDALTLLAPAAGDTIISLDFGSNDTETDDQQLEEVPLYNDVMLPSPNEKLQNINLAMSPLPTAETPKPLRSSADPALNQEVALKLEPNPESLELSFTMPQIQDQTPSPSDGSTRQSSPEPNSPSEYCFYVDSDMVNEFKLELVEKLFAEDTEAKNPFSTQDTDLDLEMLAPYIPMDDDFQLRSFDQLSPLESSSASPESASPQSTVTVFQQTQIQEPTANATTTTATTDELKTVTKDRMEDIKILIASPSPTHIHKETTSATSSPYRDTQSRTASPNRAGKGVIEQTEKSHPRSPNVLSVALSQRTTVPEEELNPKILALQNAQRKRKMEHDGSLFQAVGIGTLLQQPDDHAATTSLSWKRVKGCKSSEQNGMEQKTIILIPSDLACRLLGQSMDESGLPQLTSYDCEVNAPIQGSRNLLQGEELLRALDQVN
Experimental: Next, we used a cellular-thermal shift assay[40] to assess whether our lead molecule binds to HIF-1α in the intracellular environment. We observed a 2.9 ± 0.4-fold increased level of HIF-1α protein in Panc-1 (pancreatic cancer) cells treated with 40 μM cyclo-CRLII(4-iodo)F compared to DMSO control in samples heated to 54 °C, indicating intracellular binding of this compound to its protein target (Figure 6d). […]
highest pLDDT score was relaxes with the inbuilt amber energy minimisation and used for subsequent docking steps. HADDOCK docking was performed by assigning the HIF-1α PAS-B domain (residues 214-335) and CRLIIF residues 1, 5 and 6 as active residue binders and clustered using the inbuilt RMSD clustering algorithm.
Cellular Thermal Shift Assay
Pancreatic cancer cells (PANC-1) were plated in a T75 flask at 80% confluency overnight under normoxic conditions. The cells were then dosed with compound and incubated for 18 hours under hypoxic conditions (1% O2, 94% N2, 5% CO2, 80% Humidity). The cells were subsequently washed with PBS and divided into several aliquots, each of which was exposed to different temperatures (45°C, 48°C, 51°C, and 54°C) for 30 seconds on a thermal cycler (Bio-Rad). […] The concentration of the extracted proteins was measured using the BCA Protein Assay Kit (Sigma) following the manufacturer's instructions. […]

T-Rex-293 cells = assay: CytoTox-Glo cytotoxicity / viability assay; assay type: cell-based, human; conditions: doses up to 75 μM
Source text: Following in vitro characterization and optimization of binding, we next assessed the effect of our cyclic peptides in mammalian cells. A cell line with a stably integrated reporter was constructed, in which the expression of yellow fluorescent protein (YFP) was placed under the control of a HRE. Thus, hypoxia would be expected to increase YFP expression (and subsequent fluorescence) in these cells, whereas treatment with a cell-permeable HIF inhibitor would be expected to reduce this fluorescence signal. A fusion cassette was designed containing the YFP gene preceded by three copies of the HRE sequence. This cassette was stably integrated into T-REx-293 cells as previously described.[12] […] The effect of this compound on the viability of T-Rex-293 was assessed with no effect observed at doses up to 75 μM (Figure S9a). […] It should be noted that the relative activity of each compound in this assay will be a combination of its cell permeability and HIF-inhibiting activity. […] We therefore continued to further characterize the cell activity of the 4-iodo-phenylalanine derivative. […]
Pancreatic cancer cells (PANC-1) were plated in a T75 flask at 80% confluency overnight under normoxic conditions. […] The concentration of the extracted proteins was measured using the BCA Protein Assay Kit (Sigma) following the manufacturer's instructions. […]

T1 sequence (Q99814 240-350 limits assumed): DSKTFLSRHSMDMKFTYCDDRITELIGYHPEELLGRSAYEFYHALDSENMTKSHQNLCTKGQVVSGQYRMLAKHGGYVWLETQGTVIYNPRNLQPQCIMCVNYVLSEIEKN

SMILES: CC[C@H](C)[C@@H]1NC(=O)[C@H](CC(C)C)NC(=O)[C@H](CCCNC(=N)N)NC(=O)[C@H](CS)NC(=O)[C@H](Cc2ccc(I)cc2)NC(=O)[C@H]([C@@H](C)CC)NC1=O [cyclo-CRLII(4-iodo)F] (cyclo(CRLII[Phe(4-I)]))
- improvement in KD for HIF-2α PAS-B compared to the parent cyclic peptide (HIF-2α PAS-B domain): 6.5 fold
- increased level of HIF-1α protein compared to DMSO control (HIF-1α in Panc-1 cells): 2.9 ± 0.4 fold
- effect on the viability of T-Rex-293 (T-Rex-293 cells): no effect
